According to PMC3758310, “The Human Cathelicidin LL-37 Has Antiviral Activity against Respiratory Syncytial Virus” (PLoS ONE, 2013):

Key:
[1] = tested on: RSV-infected HEp-2 cells; assay: MTT assay of viable metabolically active RSV-infected HEp-2 cells (cytopathic effects); format: cell-based; conditions: for viable HEp-2 cells surviving RSV infection at 5 days, pre-treatment condition: simultaneous RSV MOI = 0.005 and LL-37 0–50 µg/ml, scrambled LL-37 50 µg/ml or ribavirin 200 µM for 2 hours, 5 days without treatment; for protection of RSV-infected HEp-2 cells from cell death at 5 days, continuous treatment condition: treatment re-added after wash and present for 5 days, ribavirin 200 µM, LL-37 p<0.01, ribavirin p<0.001 vs untreated infected
Description: HEp-2 cells were treated with LL-37, a scrambled control LL-37 at 50 µg/ml or ribavirin (200 µM; Sigma Aldrich), in the presence or absence of simultaneous infection with RSV (MOI = 0.005). Cells were incubated for 2 hours at 37°C, washed and placed in fresh media. In some wells LL-37 or ribavirin was added again at this point (for “continuous treatment”). Cells were cultured at 37°C for 24 hours or 5 days, after which the number of viable metabolically active cells was assessed using an MTT assay (Sigma Aldrich) according to manufacturer's instructions (7.5 mg/ml, 37°C, 4 hours). Resulting formazan was dissolved in dimethylsulfoxide (Sigma Aldrich) and optical density was measured at 450 nm. Alternatively, cells simultaneously treated with or without LL-37 in presence or absence of RSV infection were allowed to dry for 10 minutes before they were fixed and permeabilised using ice-cold acetone/methanol (1∶1) for 10 minutes at 4°C. After a wash with PBS, cells were subjected to TUNEL assay using an In situ cell death kit (Roche Applied Science, UK) according to manufacturer's instructions. Cells were washed three times with PBS and 1 µg/ml DAPI was included in the second wash (3 minutes staining). Cells were examined by fluorescent microscopy, four representative images per well were captured using an EVOS fl imaging system (PEQLAB Ltd) and TUNEL positive and negative cells were quantified using ImageJ (http://rsbweb.nih.gov/ij/index.html).

[2] = tested on: RSV; assay: Production of new infectious viral particles (supernatant transfer to fresh HEp-2 cells, immunoplaque assay); format: cell-based, RSV strain A2
Description: (§1) An immunoplaque assay (based on) was used to quantify RSV infected cells. Optimisation of the infection protocol was conducted using serial dilutions of RSV to assess the PFU of propagated virus stocks and establish an optimal MOI of 0.005 that allowed reliable counting of individual infected cells (approximately 100–250 per well) in a control infected culture at 24 hours. Peptide treatments were therefore primarily evaluated at RSV MOI = 0.005, however higher MOIs (up to 1) were also tested and similar effects of peptides were observed (data not shown). […] Cells were stained using 3-amino-ethylcarbazole substrate (Invitrogen/Life technologies) according to manufacturer's instructions for 15 minutes, washed 3 times with PBS and infected RSV positive foci were quantified by light microscopy, counting 3–4 wells per condition. […] Quantification was performed using the ImageJ plugin Treshold_colour to measure the percentage of cells positive for RSV infection. 3 wells were assessed per condition, using 4 random fields of view captured per well. To assess the production of infectious viral particles, supernatants were serially diluted and transferred to fresh HEp-2 monolayers, incubated for 2 hours at 37°C, washed, incubated for a further 24 hours and then assessed by immunoplaque assay.

[3] = tested on: RSV; assay: Spread of RSV infection in HEp-2 cultures over 48 and 72 hours (immunoplaque, image analysis); format: cell-based, RSV strain A2; conditions: washed, 48 or 72 hours, n = 3
Description: as §1

[4] = tested on: HEp-2 cells; assay: MTT assay of uninfected HEp-2 cells; format: cell-based, human; conditions: LL-37 ≤50 µg/ml, 2 hours, washed, n = 3-4
Description: (§2) HEp-2 cells were treated with LL-37, a scrambled control LL-37 at 50 µg/ml or ribavirin (200 µM; Sigma Aldrich), in the presence or absence of simultaneous infection with RSV (MOI = 0.005). Cells were incubated for 2 hours at 37°C, washed and placed in fresh media. In some wells LL-37 or ribavirin was added again at this point (for “continuous treatment”). Cells were cultured at 37°C for 24 hours or 5 days, after which the number of viable metabolically active cells was assessed using an MTT assay (Sigma Aldrich) according to manufacturer's instructions (7.5 mg/ml, 37°C, 4 hours). Resulting formazan was dissolved in dimethylsulfoxide (Sigma Aldrich) and optical density was measured at 450 nm. Alternatively, cells simultaneously treated with or without LL-37 in presence or absence of RSV infection were allowed to dry for 10 minutes before they were fixed and permeabilised using ice-cold acetone/methanol (1∶1) for 10 minutes at 4°C. After a wash with PBS, cells were subjected to TUNEL assay using an In situ cell death kit (Roche Applied Science, UK) according to manufacturer's instructions. […] Cells were examined by fluorescent microscopy, four representative images per well were captured using an EVOS fl imaging system (PEQLAB Ltd) and TUNEL positive and negative cells were quantified using ImageJ (http://rsbweb.nih.gov/ij/index.html).

[5] = tested on: RSV; assay: Immunoplaque assay of RSV-infected Vero cells (type I interferon deficient) at 24 hours; format: cell-based, RSV strain A2; conditions: 25 µg/ml simultaneous with RSV MOI = 0.005 for 2 hours, p<0.001, n = 3-5
Description: (§3) HEp-2 cells (ATCC CCL-23), Vero cells (ATCC CCL-81) and 16HBE14o^- transformed human bronchial epithelial cells (a kind gift from Dieter Gruenert, University of California) were cultured in DMEM/F12 (Gibco/Life Technologies Ltd, Paisley, UK) or RPMI (Gibco) respectively, supplemented with 2 mM L-glutamine (PAA Laboratories, Yeovil, UK) and 10% FCS (Biosera, East Sussex, UK), at 37°C and 5% CO2. 16HBE14o^- cells were cultured on wells previously coated with a basement layer of collagen IV (5 µg/ml), fibronectin (10 µg/ml) and bovine serum albumin (100 µg/ml) (all Sigma Aldrich, Dorset, UK).
(§4) An immunoplaque assay (based on) was used to quantify RSV infected cells. […] Peptide treatments were therefore primarily evaluated at RSV MOI = 0.005, however higher MOIs (up to 1) were also tested and similar effects of peptides were observed (data not shown). […] Cells were stained using 3-amino-ethylcarbazole substrate (Invitrogen/Life technologies) according to manufacturer's instructions for 15 minutes, washed 3 times with PBS and infected RSV positive foci were quantified by light microscopy, counting 3–4 wells per condition. […] Quantification was performed using the ImageJ plugin Treshold_colour to measure the percentage of cells positive for RSV infection. 3 wells were assessed per condition, using 4 random fields of view captured per well. […]

[6] = tested on: HEp-2 cells; assay: TUNEL assay of cell death in HEp-2 cells; format: cell-based, human; conditions: in the presence or absence of RSV or LL-37, 24 hours after infection; data not shown
Description: as §2

[7] = tested on: RSV; assay: Immunoplaque assay of RSV-infected HEp-2 cells at 24 hours; format: cell-based, RSV strain A2; conditions: for reduction in number of infected cells: then 2 hours infection
Description: RSV strain A2 (VR-1540) was purchased from ATCC. RSV was propagated in HEp-2 cells by infecting 5×10^6 cells that were allowed to grow on confluent overnight in serum-free VP-SFM media (Gibco) for 2 hours with 0.1 plaque forming units (PFU) followed by removal of inoculum. Cells were then incubated for 24 hours in 10% FCS Gold (PAA Laboratories) supplemented VP-SFM. Cells were then incubated for a further 5 days in 2% FCS Gold supplemented VP-SFM, cells were harvested and supernatant was snap-frozen and stored at −80°C.
An immunoplaque assay (based on) was used to quantify RSV infected cells. Optimisation of the infection protocol was conducted using serial dilutions of RSV to assess the PFU of propagated virus stocks and establish an optimal MOI of 0.005 that allowed reliable counting of individual infected cells (approximately 100–250 per well) in a control infected culture at 24 hours. Peptide treatments were therefore primarily evaluated at RSV MOI = 0.005, however higher MOIs (up to 1) were also tested and similar effects of peptides were observed (data not shown). For experimental assessment of the antiviral effects of peptides, cells were seeded at 2×10^4 per well in 96-well plates and cultured overnight, then washed and infected, in fresh serum-free medium. After 2 hours, inoculum was removed and cells were cultured in fresh medium for 24, 48 or 72 hours before analysis. Peptides were added before, after or concomitantly with RSV infection as described for individual experiments. Monolayers were fixed in absolute methanol/2% hydrogen peroxide solution for 30 minutes and washed twice with PBS. Cells were exposed to monoclonal biotinylated anti-RSV antibody in 5% BSA/PBS for 1 hour (1∶200, AbD Serotec, Kidlington, UK), washed twice with PBS and were incubated with extravidin peroxidase in 5% BSA/PBS for 30 minutes (1∶500, Sigma Aldrich). Cells were stained using 3-amino-ethylcarbazole substrate (Invitrogen/Life technologies) according to manufacturer's instructions for 15 minutes, washed 3 times with PBS and infected RSV positive foci were quantified by light microscopy, counting 3–4 wells per condition. For later timepoint analysis (48 and 72 hours post infection with RSV MOI = 0.0005), fixed and stained monolayers were examined by light microscopy and images were captured using an EVOS fl imaging system (PEQLAB Ltd, UK). Quantification was performed using the ImageJ plugin Treshold_colour to measure the percentage of cells positive for RSV infection. 3 wells were assessed per condition, using 4 random fields of view captured per well. To assess the production of infectious viral particles, supernatants were serially diluted and transferred to fresh HEp-2 monolayers, incubated for 2 hours at 37°C, washed, incubated for a further 24 hours and then assessed by immunoplaque assay.

[8] = tested on: RSV; assay: Immunoplaque assay of RSV-infected 16HBE14o- cells at 24 hours; format: cell-based, RSV strain A2; conditions: RSV MOI = 0.005, simultaneous peptide and virus 2 hours, washed, n = 3-5
Description: as §3, §4

[9] = tested on: RSV viral particles; assay: Direct viral inactivation assay; format: cell-based, RSV strain A2
Description: A modified viral inactivation assay was performed. 1 ml RSV (PFU = 2×10^3, equivalent to MOI = 0.05) was mixed with 25 µg/ml LL-37, followed by immediate 10-fold dilution in serum-free medium to reach sub-therapeutic concentrations of LL-37 (2.5 µg/ml) and RSV MOI = 0.005. 25 µg/ml scrambled LL-37 or PBS were used as negative controls. HEp-2 monolayers were infected with this virus/peptide mixture for 2 hours then washed, before cells were cultured in serum-free medium for 24 hours. Fixed monolayers were subjected to immunoplaque assay.

Compound: NC(=O)c1ncn([C@@H]2O[C@H](CO)[C@@H](O)[C@H]2O)n1 [ribavirin, reference compound]
- viable HEp-2 cells surviving RSV infection at 5 days, pre-treatment condition ([1]; washed, n = 3-4): Neither scrambled LL-37 nor the antiviral ribavirin had any direct effect
- protection of RSV-infected HEp-2 cells from cell death at 5 days, continuous treatment condition [1]: significant protection of epithelial cells from cell death

Compound: LL-37: active form of the sole human cathelicidin hCAP-18; cationic host defence peptide
- infectivity of supernatant at day 3 with LL-37 remaining in the media (continuous) ([2]; 25 µg/ml LL-37 replaced after wash, 3 days, p<0.05): reducing infectivity up to day 3
- production of new infectious viral particles ([2]; HEp-2, RSV with 25 µg/ml peptide 2 hours, washed, fresh media with or without peptide, supernatant infectivity on fresh HEp-2, p<0.001, n = 3): very substantially, fewer new infectious viral particles
- spread of infection beyond initially infected cells, LL-37 added after RSV infection (virus first) ([3]; HEp-2, RSV MOI = 0.0005 2 hours, 25 µg/ml LL-37 1 hour): spread of infection beyond the cells initially infected was minimised
- spread of infection beyond initially infected cells, peptide added simultaneously with RSV ([3]; HEp-2, RSV MOI = 0.0005, 25 µg/ml peptide 2 hours): spread of infection beyond the cells initially infected was minimised
- number of metabolically active uninfected HEp-2 cells after 5 days [4]: did not affect the number of metabolically active HEp-2 cells
- antiviral activity against RSV in Vero cells [5]: identical significant antiviral activity
- number of metabolically active RSV-infected HEp-2 cells at 24 hours ([1]; LL-37 ≤50 µg/ml, RSV MOI = 0.005, 2 hours, washed, 24 hours, OD 450 nm, n = 3-4): did not have any substantial effect
- viable HEp-2 cells surviving RSV infection at 5 days, pre-treatment condition ([1]; washed, n = 3-4): significantly more viable HEp-2 cells surviving RSV infection in a dose-dependent manner
- protection of RSV-infected HEp-2 cells from cell death at 5 days, continuous treatment condition [1]: significant protection of epithelial cells from cell death
- TUNEL positive HEp-2 cells [6]: 0.5–1.5%
- decrease in the number of initially infected cells ([7]; 25 µg/ml LL-37, in vitro): approximately 1 log
- antiviral activity against RSV in HEp-2 cells ([7]; 25 µg/ml simultaneous with RSV MOI = 0.005 for 2 hours, 24 hours, p<0.001, n = 3-5): identical significant antiviral activity
- LL-37 concentration giving significant, concentration-dependent reduction in infectivity (number of RSV-infected cells) ([7]; HEp-2, RSV MOI = 0.005, simultaneous peptide and virus 2 hours, washed, 24 hours at 37°C, p<0.05 vs virus alone, mean of n = 3-5): ≥ 10 µg/mL
- antiviral effect, LL-37 treatment delayed until 2 hours after viral infection (Virus first) ([7]; HEp-2, RSV MOI = 0.005 for 2 hours, washed, then 1 hour LL-37, infected cells at 24 hours): loss of the antiviral effect
- reduction in number of infected cells ([7]; HEp-2, RSV preincubated with 25 µg/ml LL-37 for 1 hour at 4°C, 24 hours, p<0.001): approximately 1 log
- reduction in number of infected cells ([7]; HEp-2, RSV preincubated with 25 µg/ml LL-37 for 1 hour at 37°C, 24 hours, p<0.01): approximately 1 log
- antiviral activity of full length and 22-mer partial peptides (number of infected cells) ([7]; HEp-2, simultaneous RSV MOI = 0.005 and peptide at 1, 10 and 25 µg/ml for 2 hours, washed, 24 hours, n = 3): significant antiviral activity
- protection against RSV infection when infection delayed up to 3 hours after LL-37 treatment and cell washing ([7]; HEp-2 pre-treated 25 µg/ml LL-37 1 hour, washed, RSV MOI = 0.005 at 1 or 3 hours, p<0.001, n≥3): significant protection against RSV infection
- protection against RSV infection when infection delayed 24 hours after LL-37 treatment and cell washing ([7]; HEp-2 pre-treated 25 µg/ml LL-37 1 hour, washed, RSV MOI = 0.005 at 24 hours): no protection evident
- RSV infection after pre-incubation of cells with LL-37 and washing (LL-37 first) ([7]; HEp-2 treated with LL-37 1 hour, washed, 2 hour RSV infection MOI = 0.005, 24 hours, p<0.001): significantly less RSV infection
- antiviral effect (number of RSV-infected cells relative to untreated infected cells) [8]: The same effect was observed
- antiviral effect of virus and cell exposure to 2.5 µg/ml LL-37 ([9]; RSV MOI = 0.005 pre-mixed with 2.5 µg/ml LL-37 before immediate use, HEp-2, 24 hours): no significant effects
- antiviral effect of virus exposure to 25 µg/ml peptide followed by 1 in 10 dilution (cell exposure 2.5 µg/ml) ([9]; RSV MOI = 0.05 pre-mixed with 25 µg/ml, immediate 1:10 dilution, HEp-2 infected 2 hours, 24 hours, immunoplaque, n≥3): significant antiviral effects
